We go through 18 compounds from patent US10759766B2, “Certain chemical entities, compositions, and methods” (NeuPharma, Inc., priority 2011, dated 2020).

For orientation: inhibition means the percentage by which the read-out fell short of the control. The IC50 is the midpoint of a concentration-inhibition curve.

One test has as its target BRAF V600E (Homo sapiens (Human), UniProt P15056, V600E). Put plainly: Z′-LYTE kinase inhibition assay (Invitrogen), BRAF V600E. The test is classed as biochemical. As to conditions: Z′-LYTE method; for inhibition at 1 µM: 1 μM compound, read-out: % inhibition at 1 μM against BRAF V600E. As to the method: (§1) Inhibitory activities Inhibitory activities of compounds against BRAF, and BRAF V600E were measured by Invitrogen using Z′-LYTE® Method as briefly described in the following. 4× Test compounds are dissolved in 1% DMSO. […] ATP solutions are diluted to a 4×ATP working concentration in Kinase Buffer (50 mM HEPES pH 7.5, 0.01% BRIJ-35, 10 mM MgCl2, 1 mM EGTA). Reaction started by 30-second shaking of mixture consisting of 2.5 μL 4× test compound, […] and 2.5 μL 4×ATP Solution on Bar-coded Corning, low volume NBS, black 384-well plate (Corning Cat. #3676). Then the mixture was incubated for 60-minute at room temperature for the kinase reaction, followed by addition of 5 μL of a 1:1024 dilution of development reagent A and 30-second plate shake. The mixture was then incubated for another 60-minute at room temperature for development reaction. Fluorescence was read by plate reader. IC50 was calculated by plotting the concentration of compound vs the percentage of inhibition in treated wells using GraphPad Prism 5.
The scale utilized in Table 3 is as follows: +++ less than 100 nM; and ++ greater than 100 nM.

For another test, the target named is KDR (VEGFR2) (Homo sapiens (Human), UniProt P35968). Kind of test: Z′-LYTE kinase inhibition assay (Invitrogen), KDR. It counts as biochemical. Conditions: Z′-LYTE method; for inhibition at 1 µM: 1 μM compound, read-out: % inhibition at 1 μM against KDR. The procedure: as §1
Inhibitory activities of compounds against KDR (VEGFR2) were also measured by Invitrogen using Z′-LYTE® Method as described above with the following modification. The 2× KDR (VEGFR2)/Tyr 01 mixture is prepared in 50 mM HEPES pH 7.5, 0.01% BRIJ-35, 10 mM MgCl2, 1 mM EGTA. The final 10 μL Kinase Reaction consists of 0.5-11.7 ng KDR (VEGFR2) and 2 μM Tyr 01 in 50 mM HEPES pH 7.5, 0.01% BRIJ-35, 10 mM MgCl2, 1 mM EGTA. After the 1 hour Kinase Reaction incubation, 5 μL of a 1:256 dilution of Development Reagent B is added.
The scale utilized in Table 5 is as follows: +++ less than 100 nM; and ++ greater than 100 nM

The test system of a further test is A375 cells. Put plainly: Inhibition of cancer cell growth, MTT assay, A375. The test is classed as cell-based. As to conditions: Homo sapiens, A-375, 72 h exposure. As to the method:
(§2) Inhibition of cell growth by compounds was measured using MTT assay (Mosmann, T., Journal of Immunological Methods, 1983, 65, 55-63). Tumor cell lines were purchased from ATCC (American Type Culture Collection, Manassas, Va.). All cell lines were maintained in RPMI 1640 (Hyclone) supplemented with 10% fetal bovine serum (FBS, Hyclone), glutamine (2 mM, Hyclone), and antibiotics (penicillin 100 U/mL and streptomycin 50 μg/mL) at 37° C. in a humidified atmosphere of 5% CO2 in air. Taxol (as a positive control, Sigma) and compounds were dissolved in DMSO (Sigma), and the final concentration of DMSO in the medium was 1%. Tumor cells were plated in 96-well plates at densities of about 4000 cells/well of a 96-well plate and allowed to adhere/grow for 24 h. They were then treated with various concentrations of drug for 72 h. 3-(4,5-Dimethylthiazol-2-yl)-2,5-diphenyltetrazolium bromide (MTT, Sigma) was used to determine the number of viable cells at the time of compound addition and the number of cells remaining after 72 h compound exposure. The number of cells remaining after 72 h was compared to the number of viable cells at the time of compound addition by measuring the absorbance at 570 nm, allowing for the calculation of growth inhibition.
(§3) All concentrations of compounds were tested in triplicate and controls were averaged over 4 wells. IC50 was calculated by plotting the concentration of compound vs the percentage of inhibition in treated wells using GraphPad Prism 5. […] The scale utilized in Table 6 is as follows: +++ less than 1000 nM; ++ between 1000 nM and 5000 nM; and + greater than 5000 nM. The scale utilized in Table 7 is as follows: +++ less than 2000 nM; ++ between 2000 nM and 5000 nM; and + greater than 5000 nM.
On the technique in general: Tetrazolium dyes change colour on reduction, which living cells bring about.

A further test concerns A549 cells. Kind of test: Inhibition of cancer cell growth, MTT assay, A549. Conditions: Homo sapiens, A549, 72 h exposure. The test is classed as cell-based. The procedure:
as §2, §3

KDR (VEGFR2), sequence (P35968 20-1356): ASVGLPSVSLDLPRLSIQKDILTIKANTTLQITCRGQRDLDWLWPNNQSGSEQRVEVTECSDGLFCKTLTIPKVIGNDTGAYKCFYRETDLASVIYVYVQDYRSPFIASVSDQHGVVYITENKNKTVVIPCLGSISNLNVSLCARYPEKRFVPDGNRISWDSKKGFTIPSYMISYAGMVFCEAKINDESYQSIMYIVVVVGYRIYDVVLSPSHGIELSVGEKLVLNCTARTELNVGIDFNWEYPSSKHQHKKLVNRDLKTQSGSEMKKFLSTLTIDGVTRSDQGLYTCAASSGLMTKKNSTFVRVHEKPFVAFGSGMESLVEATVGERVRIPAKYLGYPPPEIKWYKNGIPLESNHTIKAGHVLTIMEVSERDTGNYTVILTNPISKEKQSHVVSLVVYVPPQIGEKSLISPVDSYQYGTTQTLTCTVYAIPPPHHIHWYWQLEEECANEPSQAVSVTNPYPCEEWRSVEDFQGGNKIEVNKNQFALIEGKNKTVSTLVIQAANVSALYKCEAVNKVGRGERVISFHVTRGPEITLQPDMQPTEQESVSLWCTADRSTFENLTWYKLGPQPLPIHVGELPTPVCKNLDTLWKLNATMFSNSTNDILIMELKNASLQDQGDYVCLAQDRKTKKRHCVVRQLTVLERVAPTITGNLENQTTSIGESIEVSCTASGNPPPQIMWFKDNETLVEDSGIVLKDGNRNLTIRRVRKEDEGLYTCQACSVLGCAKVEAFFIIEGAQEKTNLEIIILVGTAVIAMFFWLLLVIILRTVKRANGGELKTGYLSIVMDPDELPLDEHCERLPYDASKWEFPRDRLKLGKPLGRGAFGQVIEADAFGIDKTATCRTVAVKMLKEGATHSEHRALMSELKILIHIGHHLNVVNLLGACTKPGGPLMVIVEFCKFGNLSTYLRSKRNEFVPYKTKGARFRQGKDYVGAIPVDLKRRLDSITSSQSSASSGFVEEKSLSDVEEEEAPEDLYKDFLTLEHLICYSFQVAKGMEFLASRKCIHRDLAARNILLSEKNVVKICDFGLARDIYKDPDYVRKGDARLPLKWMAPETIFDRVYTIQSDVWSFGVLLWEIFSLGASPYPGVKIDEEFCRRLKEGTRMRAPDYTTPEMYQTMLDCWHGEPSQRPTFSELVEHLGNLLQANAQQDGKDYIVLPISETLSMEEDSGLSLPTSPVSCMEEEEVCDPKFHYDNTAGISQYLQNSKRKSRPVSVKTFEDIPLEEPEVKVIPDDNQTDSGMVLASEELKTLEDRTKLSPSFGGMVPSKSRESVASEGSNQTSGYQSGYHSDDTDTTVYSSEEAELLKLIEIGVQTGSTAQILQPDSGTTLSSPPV
BRAF V600E, sequence (P15056 whole entry V600E): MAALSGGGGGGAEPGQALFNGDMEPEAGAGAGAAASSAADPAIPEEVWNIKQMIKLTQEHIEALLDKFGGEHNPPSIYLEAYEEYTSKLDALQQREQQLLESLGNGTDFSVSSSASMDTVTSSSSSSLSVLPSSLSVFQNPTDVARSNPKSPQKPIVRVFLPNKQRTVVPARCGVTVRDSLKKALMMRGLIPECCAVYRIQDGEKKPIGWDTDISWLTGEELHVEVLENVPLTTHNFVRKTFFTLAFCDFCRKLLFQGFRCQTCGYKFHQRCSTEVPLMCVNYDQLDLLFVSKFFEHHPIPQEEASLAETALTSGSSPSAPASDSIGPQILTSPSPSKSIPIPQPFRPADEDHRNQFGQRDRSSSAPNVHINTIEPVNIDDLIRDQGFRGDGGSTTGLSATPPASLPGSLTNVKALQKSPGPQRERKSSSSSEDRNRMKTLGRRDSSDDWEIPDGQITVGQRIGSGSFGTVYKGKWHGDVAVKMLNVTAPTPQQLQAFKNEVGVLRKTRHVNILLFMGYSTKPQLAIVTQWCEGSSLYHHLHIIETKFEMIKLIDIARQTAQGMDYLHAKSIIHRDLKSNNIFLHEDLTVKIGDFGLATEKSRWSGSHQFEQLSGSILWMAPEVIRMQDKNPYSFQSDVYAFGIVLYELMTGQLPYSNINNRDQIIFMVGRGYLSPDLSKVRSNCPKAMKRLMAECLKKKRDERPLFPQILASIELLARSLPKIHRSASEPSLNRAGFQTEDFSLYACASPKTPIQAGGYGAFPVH

Turning to `O=C(Nc1cccc(C(=O)c2ccc3ncc(N4CCOCC4)nc3c2)c1)c1cccc(F)c1` [Compound C118, 3-fluoro-N-(3-(3-morpholinoquinoxaline-6-carbonyl)phenyl)benzamide], the inhibition at 1 µM at BRAF V600E was more than 89%; on KDR (VEGFR2), 70 to 89%. In addition, the IC50 in the test on A375 cells was 1 to 5 µM; with A549 cells it was 2 to 5 µM.

`O=C(Nc1cc(F)cc(Cl)c1)Nc1ccc(F)c(C(=O)c2ccc3ncc(N4CCOCC4)nc3c2)c1` [Compound C059, 1-(3-chloro-5-fluorophenyl)-3-(4-fluoro-3-(3-morpholinoquinoxaline-6-carbonyl)phenyl)urea]: the inhibition at 1 µM at BRAF V600E is more than 89%; on KDR (VEGFR2), 70 to 89%. Moreover, the IC50 with A375 cells lay in the range of 1 to 5 µM; in the test on A549 cells it was 2 to 5 µM.

Regarding `O=C(Nc1cccc(Cl)c1)Nc1cc(F)cc(C(=O)c2ccc3nccnc3c2)c1` [Compound C068, 1-(3-chlorophenyl)-3-(3-fluoro-5-(quinoxaline-6-carbonyl)phenyl)urea], the values for the inhibition at 1 µM at BRAF V600E and at KDR (VEGFR2) were more than 89% and less than 70%, respectively. For the same compound, the IC50 in the test on A375 cells and with A549 cells was more than 5 µM each time.

As for `O=C(Nc1cccc(F)c1)Nc1cccc(C(=O)c2ccc3ncc(N4CCCC4)nc3c2)c1` [Compound C019, 1-(3-fluorophenyl)-3-(3-(3-(pyrrolidin-1-yl)quinoxaline-6-carbonyl)phenyl)urea], the inhibition at 1 µM at BRAF V600E and at KDR (VEGFR2) was more than 89% each time. The IC50 on BRAF V600E (read-out: IC50 against BRAF V600E) was less than 0.1 µM; on KDR (VEGFR2) (read-out: IC50 against KDR), less than 0.1 µM; in the test on A375 cells, more than 5 µM; in the test with A549 cells, more than 5 µM.

In the case of `O=C(Nc1ccc(F)c(C(=O)c2ccc3ncc(N4CCOCC4)nc3c2)c1)c1cccc(F)c1` [Compound C136], the inhibition at 1 µM on BRAF V600E and on KDR (VEGFR2) was more than 89% throughout. Further, the IC50 with A375 cells is 1 to 5 µM; in the test with A549 cells it was more than 5 µM.

In the case of `O=C(Nc1cccc(C(=O)c2ccc3ncc(N4CCCC4)nc3c2)c1)Nc1ccc(Cl)c(C(F)(F)F)c1` [Compound C021, 1-(4-chloro-3-(trifluoromethyl)phenyl)-3-(3-(3-(pyrrolidin-1-yl)quinoxaline-6-carbonyl)phenyl)urea], the inhibition at 1 µM at BRAF V600E was 70 to 89%; on KDR (VEGFR2), more than 89%. Further, the IC50 was 1 to 5 µM in the test on A375 cells and more than 5 µM in the test on A549 cells.

`O=C(Nc1ccc(C(F)(F)F)cc1)Nc1cc(F)cc(C(=O)c2ccc3ncc(N4CCOCC4)nc3c2)c1` [Compound C048, 1-(3-fluoro-5-(3-morpholinoquinoxaline-6-carbonyl)phenyl)-3-(4-(trifluoromethyl)phenyl)urea]: the figures for the inhibition at 1 µM at BRAF V600E and on KDR (VEGFR2) were more than 89% and less than 70%, respectively. Also, the half-maximal inhibitory concentration (IC50) in the test on A375 cells is less than 1 µM; with A549 cells, 2 to 5 µM.

Regarding `NCCNc1cnc2ccc(C(=O)c3cc(NC(=O)Nc4cc(F)cc(F)c4)ccc3F)cc2n1` [Compound C092, 1-(3-(3-((2-aminoethyl)amino)quinoxaline-6-carbonyl)-4-fluorophenyl)-3-(3,5-difluorophenyl)urea], the inhibition at 1 µM at BRAF V600E is more than 89%; on KDR (VEGFR2) it was 70 to 89%. Besides, the IC50 in the test with A375 cells is 1 to 5 µM; with A549 cells, more than 5 µM.

With `O=C(Nc1cccc(F)c1)Nc1cc(F)c(F)c(C(=O)c2ccc3ncc(N4CCOCC4)nc3c2)c1F` [Compound C033, 1-(3-fluorophenyl)-3-(2,4,5-trifluoro-3-(3-morpholinoquinoxaline-6-carbonyl)phenyl)urea], the inhibition at 1 µM at BRAF V600E is 70 to 89%; on KDR (VEGFR2) it was less than 70%. In addition, the 50% inhibitory concentration (IC50) with A375 cells fell in the range of 1 to 5 µM; with A549 cells it was 2 to 5 µM.

As for `O=C(Nc1cccc(Cl)c1)Nc1ccc(F)c(C(=O)c2ccc3nccnc3c2)c1` [Compound C072, 1-(3-chlorophenyl)-3-(4-fluoro-3-(quinoxaline-6-carbonyl)phenyl)urea], the results for the inhibition at 1 µM at BRAF V600E and at KDR (VEGFR2) were more than 89% and less than 70%, respectively. Also, the IC50 was 1 to 5 µM with A375 cells and more than 5 µM with A549 cells.

Take `O=C(Nc1cc(F)c(F)c(C(=O)c2ccc3nccnc3c2)c1)c1ccc(Cl)c(C(F)(F)F)c1` [Compound C129, 4-chloro-N-(3,4-difluoro-5-(quinoxaline-6-carbonyl)phenyl)-3-(trifluoromethyl)benzamide]: the inhibition at 1 µM is more than 89% on BRAF V600E and 70 to 89% at KDR (VEGFR2). The IC50 with A375 cells was 1 to 5 µM; in the test with A549 cells it was more than 5 µM.

`O=C(Nc1ccc(Cl)cc1)Nc1cc(F)cc(C(=O)c2ccc3ncc(N4CCOCC4)nc3c2)c1` [Compound C045, 1-(4-chlorophenyl)-3-(3-fluoro-5-(3-morpholinoquinoxaline-6-carbonyl)phenyl)urea]: the inhibition at 1 µM on BRAF V600E was more than 89%; at KDR (VEGFR2), less than 70%. Further, the IC50 in the test on A375 cells is less than 1 µM; in the test on A549 cells, 2 to 5 µM.

As to `O=C(Nc1ccc(Cl)c(Cl)c1)Nc1ccc(F)c(C(=O)c2ccc3ncc(N4CCOCC4)nc3c2)c1` [Compound C058, 1-(3,4-dichlorophenyl)-3-(4-fluoro-3-(3-morpholinoquinoxaline-6-carbonyl)phenyl)urea], the inhibition at 1 µM at BRAF V600E and on KDR (VEGFR2) was more than 89% throughout. The values for the IC50 in the test with A375 cells and with A549 cells were less than 1 µM and less than 2 µM, respectively.

Consider `O=C(Nc1cccc(C(F)(F)F)c1)Nc1cc(F)c(F)c(C(=O)c2ccc3ncc(N4CCOCC4)nc3c2)c1F` [Compound C034, 1-(2,4,5-trifluoro-3-(3-morpholinoquinoxaline-6-carbonyl)phenyl)-3-(3-(trifluoromethyl)phenyl)urea], for which the inhibition at 1 µM on BRAF V600E and on KDR (VEGFR2) was less than 70% each time. Further, the IC50 with A375 cells is 1 to 5 µM; in the test on A549 cells it was 2 to 5 µM.

Regarding `O=C(Nc1ccc(F)c(C(=O)c2ccc3nccnc3c2)c1)c1cccc(F)c1` [Compound C115, 3-fluoro-N-(4-fluoro-3-(quinoxaline-6-carbonyl)phenyl)benzamide], the values for the inhibition at 1 µM at BRAF V600E and at KDR (VEGFR2) were more than 89% and 70 to 89%, respectively. The concentration for half-maximal inhibition (IC50) in the test on A375 cells and with A549 cells was more than 5 µM each time.

Consider `O=C(Nc1cc(F)cc(Cl)c1)Nc1cc(F)cc(C(=O)c2ccc3ncc(N4CCOCC4)nc3c2)c1` [Compound C060, 1-(3-chloro-5-fluorophenyl)-3-(3-fluoro-5-(3-morpholinoquinoxaline-6-carbonyl)phenyl)urea], for which the inhibition at 1 µM on BRAF V600E is more than 89%; at KDR (VEGFR2), less than 70%. Besides, the results for the IC50 in the test with A375 cells and with A549 cells were 1 to 5 µM and 2 to 5 µM, respectively.

On to `O=C(Nc1cc(F)c(F)c(C(=O)c2ccc3ncc(N4CCOCC4)nc3c2)c1F)c1ccc(Cl)c(C(F)(F)F)c1` [Compound C139], for which the inhibition at 1 µM at BRAF V600E and at KDR (VEGFR2) was less than 70% throughout. For the same compound, the IC50 in the test with A375 cells and in the test with A549 cells was more than 5 µM throughout.

As to `O=C(Nc1ccc(F)c(C(=O)c2ccc3nccnc3c2)c1)c1ccc(Cl)c(C(F)(F)F)c1` [Compound C117, 4-chloro-N-(4-fluoro-3-(quinoxaline-6-carbonyl)phenyl)-3-(trifluoromethyl)benzamide], the values for the inhibition at 1 µM on BRAF V600E and on KDR (VEGFR2) were more than 89% and 70 to 89%, respectively. The IC50 was 1 to 5 µM in the test with A375 cells and 2 to 5 µM in the test with A549 cells.
